Experimental data from patent publication US12503475B2 (Centessa Pharmaceuticals (UK) Limited, priority 2020, dated 2025).
Where two headings read alike, the source gives them in different places.

Molecular target: T1, human orexin type 2 receptor (hOX2R) (Homo sapiens, UniProt O43614)
T1 construct: expressed in transfected cells
T1 sequence (O43614 1-444): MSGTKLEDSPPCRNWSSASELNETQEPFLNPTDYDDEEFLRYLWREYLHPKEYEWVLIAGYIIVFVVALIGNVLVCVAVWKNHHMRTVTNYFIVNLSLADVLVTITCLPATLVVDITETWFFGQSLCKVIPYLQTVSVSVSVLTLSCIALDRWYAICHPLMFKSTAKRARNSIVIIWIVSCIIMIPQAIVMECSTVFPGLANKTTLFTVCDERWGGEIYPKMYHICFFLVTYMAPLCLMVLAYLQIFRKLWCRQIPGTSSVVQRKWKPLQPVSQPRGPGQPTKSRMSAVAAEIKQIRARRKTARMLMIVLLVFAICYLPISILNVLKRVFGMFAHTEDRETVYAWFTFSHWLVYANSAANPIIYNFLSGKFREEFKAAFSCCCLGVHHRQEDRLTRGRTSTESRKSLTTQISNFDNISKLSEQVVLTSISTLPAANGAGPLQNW
Test: Measurement of orexin type 2 receptor agonist activity (FLIPR calcium fluorescence)
Format: cell-based
Settings: for EC50: read-out: hOx2 pEC50 (converted); for Emax: CHO, read-out: hOx2 Emax (%)
Method: The biological activity of the compounds of the present disclosure may be determined in cells stably expressing either orexin type 2 or orexin type 1 receptor. […] The agonist activity of a compound of the present disclosure may be determined by fluorescence value.
Stable cell line generation.
Measurement of orexin type 2 receptor agonist activity. […] As used herein, E. indicates the value at 10 μM concentration when orexin A is converted to a full agonist (maximum value of agonist activity. 100%).

[1] = CHO cells expressing hOX2R, FLIPR calcium fluorescence

| EC50 [1] | Emax [1] | hOx2 Emax (%) [1] | hOx2 pEC50 [1] | Compound | Emax |
| --- | --- | --- | --- | --- | --- |
| 10 to 100 nM | 90 to 100% | – | – | CCCS(=O)(=O)N[C@@H]1[C@H](Cc2cccc(-c3ccccc3)c2)N(C(=O)[C@H]2CCO2)CC12CC2 [Compound 310, N-((6S,7S)-6-([1,1′-biphenyl]-3-ylmethyl)-5-((R)-oxetane-2-carbonyl)-5-azaspiro[2.4]heptan-7-yl)propane-1-sulfonamide] | – |
| 1 to 10 nM | 90 to 100% | – | – | CN(CC1CC1)C(=O)N1CC2(CC2)[C@H](NS(C)(=O)=O)[C@@H]1Cc1cccc(-c2ccccc2)c1F [Compound 332, (6S,7S)-N-(cyclopropylmethyl)-6-((2-fluoro-[1,1′-biphenyl]-3-yl)methyl)-N-methyl-7-(methylsulfonamido)-5-azaspiro[2.4]heptane-5-carboxamide] | – |
| 100 to 1000 nM | 50 to 60% | – | – | CC(C)C(=O)N1CC2(CC2)[C@@H](NS(C)(=O)=O)[C@H]1Cc1cccc(-c2ccccc2)c1 [Compound 16, N-((6R,7R)-6-([1,1′-biphenyl]-3-ylmethyl)-5-isobutyryl-5-azaspiro[2.4]heptan-7-yl)methanesulfonamide] | – |
| 1 to 10 nM | 90 to 100% | – | – | Cn1ccc(S(=O)(=O)N[C@@H]2[C@H](Cc3cccc(-c4ccccc4)c3)N(C(=O)[C@H]3CCO3)CC23CC3)n1 [Compound 72, N-((6S,7S)-6-([1,1′-biphenyl]-3-ylmethyl)-5-((R)-oxetane-2-carbonyl)-5-azaspiro[2.4]heptan-7-yl)-1-methyl-1H-pyrazole-3-sulfonamide] | – |
| 1 to 10 nM | 90 to 100% | – | – | COC[C@H](C)NC(=O)N1CC2(CC2)[C@H](NS(C)(=O)=O)[C@@H]1Cc1cccc(-c2ccccc2)c1F [Compound 328, (6S,7S)-6-((2-fluoro-[1,1′-biphenyl]-3-yl)methyl)-N-((S)-1-methoxypropan-2-yl)-7-(methylsulfonamido)-5-azaspiro[2.4]heptane-5-carboxamide] | – |
| 1 to 10 nM | 90 to 100% | – | – | CS(=O)(=O)N[C@@H]1[C@H](Cc2cccc(-c3ccccc3)c2)N(C(=O)C2CCC2)CC12CC2 (racemic) [Compound 302, N-(-6-([1,1′-biphenyl]-3-ylmethyl)-5-(cyclobutanecarbonyl)-5-azaspiro[2.4]heptan-7-yl)methanesulfonamide] | – |
| 1 to 10 nM | 90 to 100% | – | – | CC(C)(O)C(=O)N1CC2(CC2)[C@H](NS(C)(=O)=O)[C@@H]1Cc1cccc(-c2cc(F)cc(F)c2)c1F [Compound 34, N-((6S,7S)-5-(2-hydroxy-2-methylpropanoyl)-6-((2,3′,5′-trifluoro-[1,1′-biphenyl]-3-yl)methyl)-5-azaspiro[2.4]heptan-7-yl)methanesulfonamide] | – |
| 10 to 100 nM | 90 to 100% | – | – | CN(C)C(=O)N1CC2(CC2)[C@H](NS(C)(=O)=O)[C@@H]1Cc1cccc(-c2cc(F)cc(F)c2)c1 (racemic) [Compound 296, 6-((3′,5′-difluoro-[1,1′-biphenyl]-3-yl)methyl)-N,N-dimethyl-7-(methylsulfonamido)-5-azaspiro[2.4]heptane-5-carboxamide] | – |
| 1 to 10 nM | 90 to 100% | – | – | CCS(=O)(=O)N[C@@H]1[C@H](Cc2cccc(-c3ccccc3)c2F)N(C(=O)[C@H](O)COC)CC12CC2 [Compound 344, N-((6S,7S)-6-((2-fluoro-[1,1′-biphenyl]-3-yl)methyl)-5-((R)-2-hydroxy-3-methoxypropanoyl)-5-azaspiro[2.4]heptan-7-yl)ethanesulfonamide] | – |
| – | – | D (Emax ranging between 60 and 70) | *** (pEC50 ranging between 7.0 and 8.0) | COc1c(C[C@H]2[C@@H](NS(C)(=O)=O)C3(CC3)CN2C(=O)C2CC(F)C2)cccc1-c1ccccc1 (stereo partly drawn) [Compound 340, N-((6S,7S)-5-(3-fluorocyclobutane-1-carbonyl)-6-((2-methoxy-[1,1′-biphenyl]-3-yl)methyl)-5-azaspiro[2.4]heptan-7-yl)methanesulfonamide] | – |
| 10 to 100 nM | 80 to 90% | – | – | O=C([C@H]1CCO1)N1CC2(CC2)[C@H](NS(=O)(=O)N2CCCC2)[C@@H]1Cc1cccc(-c2ccccc2)c1 [Compound 96, N-((6S,7S)-6-([1,1′-biphenyl]-3-ylmethyl)-5-((R)-oxetane-2-carbonyl)-5-azaspiro[2.4]heptan-7-yl)pyrrolidine-1-sulfonamide] | – |
| 1 to 10 nM | 90 to 100% | – | – | CS(=O)(=O)N[C@@H]1[C@H](Cc2cccc(-c3ccccc3)c2F)N(C(=O)NCC2(F)CC2)CC12CC2 [Compound 104, (6S,7S)-6-((2-fluoro-[1,1′-biphenyl]-3-yl)methyl)-N-((1-fluorocyclopropyl)methyl)-7-(methylsulfonamido)-5-azaspiro[2.4]heptane-5-carboxamide] | – |
| 1 to 10 nM | 90 to 100% | – | – | CS(=O)(=O)N[C@@H]1[C@H](Cc2cccc(-c3ccccc3)c2)N(C(=O)[C@H](O)C2CC2)CC12CC2 [Compound 61, N-((6S,7S)-6-([1,1′-biphenyl]-3-ylmethyl)-5-((R)-2-cyclopropyl-2-hydroxyacetyl)-5-azaspiro[2.4]heptan-7-yl)methanesulfonamide] | – |
| 1 to 10 nM | 90 to 100% | – | – | CC(C)(O)C(=O)N1CC2(CC2)[C@H](NS(=O)(=O)CF)[C@@H]1Cc1cc(F)cc(-c2cc(F)cc(F)c2)c1F [Compound 419, 1-fluoro-N-((6S,7S)-5-(2-hydroxy-2-methylpropanoyl)-6-((2,3′,5,5′-tetrafluoro-[1,1′-biphenyl]-3-yl)methyl)-5-azaspiro[2.4]heptan-7-yl)methanesulfonamide] | – |
| 0.0794 to 1 nM | 90 to 100% | – | – | O=C([C@H](O)CF)N1CC2(CC2)[C@H](NS(=O)(=O)CF)[C@@H]1Cc1cccc(-c2cc(F)cc(F)c2)c1F [Compound 391, 1-fluoro-N-((6S,7S)-5-((S)-3-fluoro-2-hydroxypropanoyl)-6-((2,3′,5′-trifluoro-[1,1′-biphenyl]-3-yl)methyl)-5-azaspiro[2.4]heptan-7-yl)methanesulfonamide] | – |
| 0.0794 to 1 nM | 90 to 100% | – | – | C[C@@H](F)C(=O)N1CC2(CC2)[C@H](NS(=O)(=O)C(F)F)[C@@H]1Cc1cccc(-c2cc(F)cc(F)c2)c1F [Compound 378, 1,1-difluoro-N-((6S,7S)-5-((R)-2-fluoropropanoyl)-6-((2,3′,5′-trifluoro-[1,1′-biphenyl]-3-yl)methyl)-5-azaspiro[2.4]heptan-7-yl)methanesulfonamide] | – |
| 10 to 100 nM | 90 to 100% | – | – | CS(=O)(=O)NC1C(Cc2cccc(-c3ccccc3)c2F)N(C(=O)[C@H]2C[C@@H](F)C2)CC12CC2 (mixture of isomers) [Compound 91, N-(6-((2-fluoro-[1,1′-biphenyl]-3-yl)methyl)-5-((1s,3s)-3-fluorocyclobutane-1-carbonyl)-5-azaspiro[2.4]heptan-7-yl)methanesulfonamide] | – |
| 1 to 10 nM | 90 to 100% | – | – | CS(=O)(=O)N[C@@H]1[C@H](Cc2cccc(-c3ccccc3)c2F)N(C(=O)NCCC#N)CC12CC2 [Compound 330, (6S,7S)-N-(2-cyanoethyl)-6-((2-fluoro-[1,1′-biphenyl]-3-yl)methyl)-7-(methylsulfonamido)-5-azaspiro[2.4]heptane-5-carboxamide] | – |
| 1 to 10 nM | 90 to 100% | – | – | C[C@@H](CC#N)NC(=O)N1CC2(CC2)[C@H](NS(C)(=O)=O)[C@@H]1Cc1cccc(-c2ccccc2)c1F [Compound 318, (6S,7S)-N-((S)-1-cyanopropan-2-yl)-6-((2-fluoro-[1,1′-biphenyl]-3-yl)methyl)-7-(methylsulfonamido)-5-azaspiro[2.4]heptane-5-carboxamide] | – |
| – | 80 to 90% | – | – | O=C([C@H]1CCO1)N1CC2(CC2)[C@H](NS(=O)(=O)CF)[C@@H]1Cc1cccc(-c2ccccc2)c1 [Compound 48, N-((6S,7S)-6-([1,1′-biphenyl]-3-ylmethyl)-5-((R)-oxetane-2-carbonyl)-5-azaspiro[2.4]heptan-7-yl)-1-fluoromethanesulfonamide] | – |
| 1 to 10 nM | 90 to 100% | – | – | CS(=O)(=O)NC1C(Cc2cccc(-c3ccccc3)c2F)N(C(=O)N2CC(F)C2)CC12CC2 (racemic) [Compound 45, N-(6-((2-fluoro-[1,1′-biphenyl]-3-yl)methyl)-5-(3-fluoroazetidine-1-carbonyl)-5-azaspiro[2.4]heptan-7-yl)methanesulfonamide] | – |
| 1 to 10 nM | 90 to 100% | – | – | CS(=O)(=O)NC1C(Cc2cccc(-c3ccccc3)c2F)N(C(=O)N2CCC2)CC12CC2 (racemic) [Compound 18, N-(5-(azetidine-1-carbonyl)-6-((2-fluoro-[1,1′-biphenyl]-3-yl)methyl)-5-azaspiro[2.4]heptan-7-yl)methanesulfonamide] | – |

| Compound | EC50 [1] | Emax [1] | hOx2 Emax (%) [1] | hOx2 pEC50 [1] | Emax |
| --- | --- | --- | --- | --- | --- |
| CS(=O)(=O)N[C@@H]1[C@H](Cc2cccc(-c3ccccc3)c2F)N(C(=O)NCC(F)(F)F)CC12CC2 [Compound 99, (6S,7S)-6-((2-fluoro-[1,1′-biphenyl]-3-yl)methyl)-7-(methylsulfonamido)-N-(2,2,2-trifluoroethyl)-5-azaspiro[2.4]heptane-5-carboxamide] | 1 to 10 nM | – | – | – | 90 to 100% |
